This note sets out measurements from patent US20240224991A9, “NANO-DISPERSION COMPRISING CELLULOSE NANOCRYSTAL AS PESTICIDE/FUNGICIDE CARRIERS FOR AGRICULTURE AND AQUACULTURE” (priority 2022, published 2024).

SMILES strings stand for the structures.

For the assay, the system named is mealworms. Put plainly: Pest mortality test, mealworms on sprayed spinach leaves. The assay is classed as in vivo, mealworms (larval form of the mealworm beetles). The following applies: 100 ppm DEL, in 2 hours, FIG. 3C. The procedure: Deltamethrin and permethrin/CNC nano-dispersions with agrochemical and CNC mass ratio of 1:100 were prepared according to the said process in example 5, and they are designated as CNC-DEL and CNC-PER, respectively. The resulting nano-dispersions were diluted to 0.1 wt %, 0.5 wt %, 1.0 wt % and 1.5 wt %, where the corresponding active ingredient concentration was around 10 ppm, 50 ppm, 100 ppm and 150 ppm. To perform the pest control test, fresh spinach leaves were spread on a petri dish (10 cm diameter), then 2 mL of the dispersion was sprayed on top (1 mL) and bottom (1 mL) of the leave surface, and 20 active worms were placed on top of the leaves. The survival rate of the works was recorded at set time intervals. In comparison, the pest control efficiency of 1 wt % CNC (0 ppm DEL) and DEL control (100 ppm DEL) were also investigated and compared with 1.0 wt % CNC-DEL (100 ppm DEL). In addition, the pest control efficiency of CNC-PER was compared with the commercial EC pesticide ORTHO® HOME DEFENSE® MAX™ under the same PER dosage.
Both permethrin and deltamethrin are wide spectrum pesticides that belong to synthetic pyrethroids pesticides. Their mode of action is mainly based on contact and stomach toxicity. The pest control efficiency of CNC-DEL and CNC-PER nano-dispersions were evaluated with two model worms, mealworms and waxworms. […]

For `CC1(C)[C@H](C(=O)O[C@H](C#N)c2cccc(Oc3ccccc3)c2)[C@@H]1C=C(Br)Br` [DEL control, Deltamethrin], the mortality at 100 ppm came to 30%.
